Measurements as given in US9738634B2, “Heterocyclic amide compound and herbicide” (SYNGENTA PARTICIPATIONS AG, priority 2013, dated 2017).

Legend:
Format in all cases: in vivo
redroot pigweed [1] = test: Test Example 3: weedkilling efficacy through soil treatment; L: redroot pigweed; conditions: treatment dosage 315 g/ha
In short: (§1)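 Crop and weed responses were judged three weeks after a uniform surface spray of the water-diluted emulsion at the given g/ha rate. Seeds sat beneath about 1.5 cm of sterilized diluvial soil, and boxes stood in a greenhouse at 25 to 30° C.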

bulrush [2] = test: Test Example 2: weedkilling efficacy, growth period weed treatment in the submerged state; B: bulrush; conditions: treatment dosage 252 g/ha
In short: (§2)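 First, alluvial soil in pots is flooded to 4 cm and mixed seed is sown. Next, plants grow in a greenhouse at 25 to 30° C until the 1-2 leaf stage. Then diluted emulsion is applied onto the water surface at the given g/ha rate, and injury is assessed after 3 weeks.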

green foxtail [3] = test: Test Example 3: weedkilling efficacy through soil treatment; E: green foxtail; conditions: treatment dosage 315 g/ha
In short: as §1

Italian ryegrass [4] = test: Test Example 3: weedkilling efficacy through soil treatment; I: Italian ryegrass; conditions: treatment dosage 315 g/ha
In short: as §1

corn [5] = test: Test Example 3: soil treatment, effect on crop; c: corn; conditions: treatment dosage 315 g/ha
In short: as §1

chickweed [6] = test: Test Example 3: weedkilling efficacy through soil treatment; N: chickweed; conditions: treatment dosage 315 g/ha
In short: as §1

soybean [7] = test: Test Example 3: soil treatment, effect on crop; d: soybean; conditions: treatment dosage 315 g/ha
In short: as §1

green foxtail [8] = test: Test Example 4: weedkilling efficacy by foliar treatment; E: green foxtail; conditions: treatment dosage 315 g/ha
In short: (§3)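 Seeds are spot-sown into sterilized diluvial soil and covered with about 1.5 cm of soil. After 14 days' greenhouse growth at 25 to 30° C, plants are sprayed on stems and leaves with diluted emulsion at the stated g/ha rate, then scored at 3 weeks.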

bulrush [9] = test: Test Example 1: weedkilling efficacy, preemergent weed treatment in the submerged state; B: bulrush; conditions: treatment dosage 252 g/ha
In short: (§4)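 Alluvial soil in Wagner pots flooded to 4 cm; barnyard grass, bulrush and oval-leafed pondweed seeds sown, then 2.5-leaf rice seedlings transplanted. Same day, emulsified compound diluted in water to set g/ha dosages and applied to water surface; greenhouse 25–30 °C, effect scored by criteria after 3 weeks.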

Italian ryegrass [10] = test: Test Example 4: weedkilling efficacy by foliar treatment; I: Italian ryegrass; conditions: treatment dosage 315 g/ha
In short: as §3

fig-leafed goosefoot [11] = test: Test Example 4: weedkilling efficacy by foliar treatment; M: fig-leafed goosefoot; conditions: treatment dosage 315 g/ha
In short: as §3

corn [12] = test: Test Example 4: foliar treatment, effect on crop; c: corn; conditions: treatment dosage 315 g/ha
In short: as §3

catchweed [13] = test: Test Example 4: weedkilling efficacy by foliar treatment; O: catchweed; conditions: treatment dosage 315 g/ha
In short: as §3

beet [14] = test: Test Example 4: foliar treatment, effect on crop; f: beet; conditions: treatment dosage 315 g/ha
In short: as §3

Indian mallow [15] = test: Test Example 3: weedkilling efficacy through soil treatment; K: Indian mallow; conditions: treatment dosage 315 g/ha
In short: as §1

oval-leafed pondweed [16] = test: Test Example 1: weedkilling efficacy, preemergent weed treatment in the submerged state; C: oval-leafed pondweed; conditions: treatment dosage 252 g/ha
In short: as §4

directly sown rice [17] = test: Test Example 3: soil treatment, effect on crop; b: directly sown rice; conditions: treatment dosage 315 g/ha
In short: as §1

oval-leafed pondweed [18] = test: Test Example 2: weedkilling efficacy, growth period weed treatment in the submerged state; C: oval-leafed pondweed; conditions: treatment dosage 252 g/ha
In short: as §2

crabgrass [19] = test: Test Example 3: weedkilling efficacy through soil treatment; D: crabgrass; conditions: treatment dosage 315 g/ha
In short: as §1

chickweed [20] = test: Test Example 4: weedkilling efficacy by foliar treatment; N: chickweed; conditions: treatment dosage 315 g/ha
In short: as §3

wheat [21] = test: Test Example 4: foliar treatment, effect on crop; e: wheat; conditions: treatment dosage 315 g/ha
In short: as §3

black-grass [22] = test: Test Example 4: weedkilling efficacy by foliar treatment; H: black-grass; conditions: treatment dosage 315 g/ha
In short: as §3

wheat [23] = test: Test Example 3: soil treatment, effect on crop; e: wheat; conditions: treatment dosage 315 g/ha
In short: as §1

birds-eye speedwell [24] = test: Test Example 4: weedkilling efficacy by foliar treatment; p: birds-eye speedwell; conditions: treatment dosage 315 g/ha
In short: as §3

transplanted rice = test: Test Example 1: preemergent weed treatment in the submerged state, effect on crop; a: transplanted rice; conditions: treatment dosage 252 g/ha
In short: as §4

barnyard grass [25] = test: Test Example 1: weedkilling efficacy, preemergent weed treatment in the submerged state; A: barnyard grass; conditions: treatment dosage 252 g/ha
In short: as §4

birds-eye speedwell [26] = test: Test Example 3: weedkilling efficacy through soil treatment; p: birds-eye speedwell; conditions: treatment dosage 315 g/ha
In short: as §1

beet [27] = test: Test Example 3: soil treatment, effect on crop; f: beet; conditions: treatment dosage 315 g/ha
In short: as §1

redroot pigweed [28] = test: Test Example 4: weedkilling efficacy by foliar treatment; L: redroot pigweed; conditions: treatment dosage 315 g/ha
In short: as §3

Indian mallow [29] = test: Test Example 4: weedkilling efficacy by foliar treatment; K: Indian mallow; conditions: treatment dosage 315 g/ha
In short: as §3

catchweed [30] = test: Test Example 3: weedkilling efficacy through soil treatment; O: catchweed; conditions: treatment dosage 315 g/ha
In short: as §1

fig-leafed goosefoot [31] = test: Test Example 3: weedkilling efficacy through soil treatment; M: fig-leafed goosefoot; conditions: treatment dosage 315 g/ha
In short: as §1

black-grass [32] = test: Test Example 3: weedkilling efficacy through soil treatment; H: black-grass; conditions: treatment dosage 315 g/ha
In short: as §1

crabgrass [33] = test: Test Example 4: weedkilling efficacy by foliar treatment; D: crabgrass; conditions: treatment dosage 315 g/ha
In short: as §3

soybean [34] = test: Test Example 4: foliar treatment, effect on crop; d: soybean; conditions: treatment dosage 315 g/ha
In short: as §3

barnyard grass [35] = test: Test Example 2: weedkilling efficacy, growth period weed treatment in the submerged state; A: barnyard grass; conditions: treatment dosage 252 g/ha
In short: as §2

directly sown rice [36] = test: Test Example 4: foliar treatment, effect on crop; b: directly sown rice; conditions: treatment dosage 315 g/ha
In short: as §3

Row | SMILES | L (redroot pigweed) weedkilling efficacy grade (redroot pigweed [1]) | B (bulrush) weedkilling efficacy grade (bulrush [2]) | E (green foxtail) weedkilling efficacy grade (green foxtail [3]) | I (Italian ryegrass) weedkilling efficacy grade (Italian ryegrass [4]) | c (corn) effect on crop grade (corn [5]) | N (chickweed) weedkilling efficacy grade (chickweed [6]) | d (soybean) effect on crop grade (soybean [7]) | E (green foxtail) weedkilling efficacy grade (green foxtail [8]) | B (bulrush) weedkilling efficacy grade (bulrush [9]) | I (Italian ryegrass) weedkilling efficacy grade (Italian ryegrass [10]) | M (fig-leafed goosefoot) weedkilling efficacy grade (fig-leafed goosefoot [11]) | c (corn) effect on crop grade (corn [12]) | O (catchweed) weedkilling efficacy grade (catchweed [13]) | f (beet) effect on crop grade (beet [14]) | K (Indian mallow) weedkilling efficacy grade (Indian mallow [15]) | C (oval-leafed pondweed) weedkilling efficacy grade (oval-leafed pondweed [16]) | b (directly sown rice) effect on crop grade (directly sown rice [17]) | C (oval-leafed pondweed) weedkilling efficacy grade (oval-leafed pondweed [18]) | D (crabgrass) weedkilling efficacy grade (crabgrass [19]) | N (chickweed) weedkilling efficacy grade (chickweed [20]) | also measured
1 | CC1=C(c2ccccc2)C(=O)N(C(C)(C)C(=O)Nc2nc(C)ns2)CO1 [B-1-13] | 4 (weed kill ratio 70% or more, less than 90%) | 5 (weed kill ratio 90% or more, (practically complete withering)) | 5 (weed kill ratio 90% or more, (practically complete withering)) | 5 (weed kill ratio 90% or more, (practically complete withering)) | 3 (weed kill ratio 40% or more, less than 70%) | 4 (weed kill ratio 70% or more, less than 90%) | 4 (weed kill ratio 70% or more, less than 90%) | 5 (weed kill ratio 90% or more, (practically complete withering)) | 5 (weed kill ratio 90% or more, (practically complete withering)) | 5 (weed kill ratio 90% or more, (practically complete withering)) | 4 (weed kill ratio 70% or more, less than 90%) | 2 (weed kill ratio 20% or more, less than 40%) | 5 (weed kill ratio 90% or more, (practically complete withering)) | 3 (weed kill ratio 40% or more, less than 70%) | 2 (weed kill ratio 20% or more, less than 40%) | 5 (weed kill ratio 90% or more, (practically complete withering)) | 5 (weed kill ratio 90% or more, (practically complete withering)) | 5 (weed kill ratio 90% or more, (practically complete withering)) | 5 (weed kill ratio 90% or more, (practically complete withering)) | 4 (weed kill ratio 70% or more, less than 90%) | e (wheat) effect on crop grade (wheat [21]): 4 (weed kill ratio 70% or more, less than 90%); H (black-grass) weedkilling efficacy grade (black-grass [22]): 5 (weed kill ratio 90% or more, (practically complete withering)); e (wheat) effect on crop grade (wheat [23]): 5 (weed kill ratio 90% or more, (practically complete withering)); P (birds-eye speedwell) weedkilling efficacy grade (birds-eye speedwell [24]): 4 (weed kill ratio 70% or more, less than 90%); a (transplanted rice) effect on crop grade (transplanted rice): 0 (weed kill ratio 5% or less (practically no effect)); A (barnyard grass) weedkilling efficacy grade (barnyard grass [25]): 5 (weed kill ratio 90% or more, (practically complete withering)); P (birds-eye speedwell) weedkilling efficacy grade (birds-eye speedwell [26]): 5 (weed kill ratio 90% or more, (practically complete withering)); f (beet) effect on crop grade (beet [27]): 5 (weed kill ratio 90% or more, (practically complete withering)); L (redroot pigweed) weedkilling efficacy grade (redroot pigweed [28]): 5 (weed kill ratio 90% or more, (practically complete withering)); K (Indian mallow) weedkilling efficacy grade (Indian mallow [29]): 5 (weed kill ratio 90% or more, (practically complete withering)); O (catchweed) weedkilling efficacy grade (catchweed [30]): 5 (weed kill ratio 90% or more, (practically complete withering)); M (fig-leafed goosefoot) weedkilling efficacy grade (fig-leafed goosefoot [31]): 4 (weed kill ratio 70% or more, less than 90%); H (black-grass) weedkilling efficacy grade (black-grass [32]): 5 (weed kill ratio 90% or more, (practically complete withering)); D (crabgrass) weedkilling efficacy grade (crabgrass [33]): 5 (weed kill ratio 90% or more, (practically complete withering)); d (soybean) effect on crop grade (soybean [34]): 5 (weed kill ratio 90% or more, (practically complete withering)); A (barnyard grass) weedkilling efficacy grade (barnyard grass [35]): 5 (weed kill ratio 90% or more, (practically complete withering)); b (directly sown rice) effect on crop grade (directly sown rice [36]): 5 (weed kill ratio 90% or more, (practically complete withering))
2 | CC1=C(c2ccc(Cl)s2)C(=O)N(C(C)(C)C(=O)Nc2cccc(Br)n2)CO1 [B-2-03] | 3 (weed kill ratio 40% or more, less than 70%) | 5 (weed kill ratio 90% or more, (practically complete withering)) | 3 (weed kill ratio 40% or more, less than 70%) | 3 (weed kill ratio 40% or more, less than 70%) | 0 (weed kill ratio 5% or less (practically no effect)) | 4 (weed kill ratio 70% or more, less than 90%) | 0 (weed kill ratio 5% or less (practically no effect)) | 1 (weed kill ratio 5% or more, less than 20%) | 5 (weed kill ratio 90% or more, (practically complete withering)) | 3 (weed kill ratio 40% or more, less than 70%) | 3 (weed kill ratio 40% or more, less than 70%) | 0 (weed kill ratio 5% or less (practically no effect)) | 0 (weed kill ratio 5% or less (practically no effect)) | 1 (weed kill ratio 5% or more, less than 20%) | 0 (weed kill ratio 5% or less (practically no effect)) | 5 (weed kill ratio 90% or more, (practically complete withering)) | 1 (weed kill ratio 5% or more, less than 20%) | 4 (weed kill ratio 70% or more, less than 90%) | 3 (weed kill ratio 40% or more, less than 70%) | 0 (weed kill ratio 5% or less (practically no effect)) | e (wheat) effect on crop grade (wheat [21]): 0 (weed kill ratio 5% or less (practically no effect)); H (black-grass) weedkilling efficacy grade (black-grass [22]): 3 (weed kill ratio 40% or more, less than 70%); e (wheat) effect on crop grade (wheat [23]): 1 (weed kill ratio 5% or more, less than 20%); P (birds-eye speedwell) weedkilling efficacy grade (birds-eye speedwell [24]): 2 (weed kill ratio 20% or more, less than 40%); a (transplanted rice) effect on crop grade (transplanted rice): 0 (weed kill ratio 5% or less (practically no effect)); A (barnyard grass) weedkilling efficacy grade (barnyard grass [25]): 5 (weed kill ratio 90% or more, (practically complete withering)); P (birds-eye speedwell) weedkilling efficacy grade (birds-eye speedwell [26]): 4 (weed kill ratio 70% or more, less than 90%); f (beet) effect on crop grade (beet [27]): 0 (weed kill ratio 5% or less (practically no effect)); L (redroot pigweed) weedkilling efficacy grade (redroot pigweed [28]): 1 (weed kill ratio 5% or more, less than 20%); K (Indian mallow) weedkilling efficacy grade (Indian mallow [29]): 0 (weed kill ratio 5% or less (practically no effect)); O (catchweed) weedkilling efficacy grade (catchweed [30]): 0 (weed kill ratio 5% or less (practically no effect)); M (fig-leafed goosefoot) weedkilling efficacy grade (fig-leafed goosefoot [31]): 0 (weed kill ratio 5% or less (practically no effect)); H (black-grass) weedkilling efficacy grade (black-grass [32]): 5 (weed kill ratio 90% or more, (practically complete withering)); D (crabgrass) weedkilling efficacy grade (crabgrass [33]): 3 (weed kill ratio 40% or more, less than 70%); d (soybean) effect on crop grade (soybean [34]): 1 (weed kill ratio 5% or more, less than 20%); A (barnyard grass) weedkilling efficacy grade (barnyard grass [35]): 5 (weed kill ratio 90% or more, (practically complete withering)); b (directly sown rice) effect on crop grade (directly sown rice [36]): 1 (weed kill ratio 5% or more, less than 20%)
